Source: article PMC8266241, “Tetralone derivatives are MIF tautomerase inhibitors and attenuate macrophage activation and amplify the hypothermic response in endotoxemic mice” (Journal of Enzyme Inhibition and Medicinal Chemistry, 2021)
Where two headings read alike, the source gives them in different places.

Key:
recombinant human MIF [1] = molecular target: T1, recombinant human MIF (Homo sapiens, UniProt P14174); test: Tautomerase assay: keto-enol tautomeric conversion of phenylpyruvate (enolase activity); format: biochemical; conditions: for IC50: keto-enol conversion of phenylpyruvate, read-out: Inhibition of enolase (IC50)
T1 construct: purchased ATGen Co. Ltd., Seoul, Republic of Korea
T1 sequence (P14174 2-115 limits assumed): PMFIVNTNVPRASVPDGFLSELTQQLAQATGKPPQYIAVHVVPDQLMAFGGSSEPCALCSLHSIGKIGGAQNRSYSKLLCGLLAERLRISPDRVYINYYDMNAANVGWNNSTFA

recombinant human MIF [2] = molecular target: T1, recombinant human MIF; test: Tautomerase assay: enol-keto tautomeric conversion of phenylpyruvate (ketonase reaction); format: biochemical; conditions: for IC50: enol-keto conversion of phenylpyruvate, 100 µM substrate, pH 6.5, read-out: Inhibition of ketonase (IC50); for IC50enolase/IC50ketonase: selectivity for ketonase
Method: The enol-keto tautomeric conversion of phenylpyruvate (ketonase reaction) was assessed at room temperature by monitoring the decrease in absorbance at 288 nm on a dual path Shimadzu 2100 UV spectrophotometer (Shimadzu, Kyoto, Japan) according to Taylor et al.[55] with minor modifications. Briefly, the 0.72 ml reaction mixture consisted of the enzyme at a final concentration of 0.4 µg/ml and the substrate in a 50 mM sodium phosphate buffer (pH = 6.5). The phenylpyruvate substrate was dissolved fresh in absolute ethanol to yield a final concentration of 100 µM. The reaction was monitored for 75 s at room temperature. A recombinant human MIF (from ATGen Co. Ltd., Seoul, Republic of Korea) was used as the enzyme source. Inhibitors were dissolved fresh in ethanol or DMSO. […] The compounds were diluted to achieve final concentrations of 200, 100, 50, 20, 5, 1, and 0.5 µM in the reaction mixture. All data presented have been derived from consonant measurements repeated at least three times. […] The areas under the curves obtained with and without the inhibitors were used to compare the conversion rates of the substrate.

TNF-α in RAW264.7 cells = test: TNF-α production, ELISA; format: cell-based, mouse; conditions: 20 µM pre-treatment, 1 µg/ml LPS 24 h
Method: (§1) In cell culture experiments, we used RAW264.7 mouse monocyte/macrophage cell line (ECACC, Salisbury, UK; passage number: 8–15) and RAW-Blue™ cells (Invivogen, Toulouse France, passage number: 10–14). RAW264.7 and RAW-Blue™ cells were cultured in 5% CO2 at 37 °C in endotoxin-tested Dulbecco’s Modified Eagle’s Medium (high glucose, 4.5 g/L, 2 mM L-glutamine; Corning, Corning Incorporated Costar, Corning, NY) supplemented with 10% FBS. For culturing RAW-Blue™ cells, we also added 100 µg/ml normocin and 200 µg/ml zeocin to the medium. The day before the experiments, cells were plated onto 24- or 96-well plates and cultured overnight. […] The freshly synthesised tetralone derivatives were dissolved in DMSO and applied in 20 µM concentration as a pre-treatment, added 30 min before LPS induction. […]
(§2) For cytokine concentration measurements, RAW264.7 cells were cultured in 24-well plates at a density of 5*10^5 cells/well and treated with tetralones (pre-treatment, 20 µM) and with 1 µg/ml LPS for 24 h. TNF-α, IL-6 and CCL-2 levels were determined from the culturing media by using Ready-Set-Go ELISA kits (eBioscience, San Diego, CA, USA) for TNF-α and IL-6 detection and mouse CCL-2 uncoated ELISA-kit (Invitrogen, Vienna, Austria) for CCL-2 determination. ELISA-kits were applied as provided by the protocol of the manufacturer, the optical density was measured at 450 nm.

[3] = system: NF-κB activation in RAW-Blue™ cells; test: NF-κB activation reporter assay (QUANTI-Blue); format: cell-based, mouse; conditions: 20 µM pre-treatment, 1 µg/ml LPS 24 h, vs LPS-activated cells
Method: (§3) In cell culture experiments, we used RAW264.7 mouse monocyte/macrophage cell line (ECACC, Salisbury, UK; passage number: 8–15) and RAW-Blue™ cells (Invivogen, Toulouse France, passage number: 10–14). RAW264.7 and RAW-Blue™ cells were cultured in 5% CO2 at 37 °C in endotoxin-tested Dulbecco’s Modified Eagle’s Medium (high glucose, 4.5 g/L, 2 mM L-glutamine; Corning, Corning Incorporated Costar, Corning, NY) supplemented with 10% FBS. For culturing RAW-Blue™ cells, we also added 100 µg/ml normocin and 200 µg/ml zeocin to the medium. The day before the experiments, cells were plated onto 24- or 96-well plates and cultured overnight. […] The freshly synthesised tetralone derivatives were dissolved in DMSO and applied in 20 µM concentration as a pre-treatment, added 30 min before LPS induction. To exclude the effects of vehicle, both CTRL and LPS-treated cells received the same amount of DMSO.
The detection of NF-κB activation was accomplished by using RAW-Blue™ cells. RAW-Blue™ cells are genetically modified RAW264.7 macrophages, which are able to secrete embryonic alkaline phosphatase (EAP) upon LPS induction and following NF-κB activation. The levels of EAP can be examined using QUANTI-Blue™ detection medium.
RAW-Blue™ cells were seeded into 96-well plate at a density of 10^5cells/well. Cells were treated with tetralones (pre-treatment, 20 µM) and with 1 µg/ml LPS. 24 h after LPS treatment 20 µl medium was removed and incubated with 100 µl QUANTI-Blue™ detection medium (Invivogen; Toulouse, France) in 96-well plates. The optical density was measured at 600 nm.

RAW264.7 cells [4] = test: ROS production in LPS-induced macrophages (DHR123); format: cell-based, mouse; conditions: 20 µM pre-treatment, 1 µg/ml LPS 24 h; for decrease in ROS concentrations: vs LPS-activated cells
Method: as §3
To measure the amount of reactive oxygen species we seeded RAW264.7 cells onto 96-well plates in a density of 10^5cells/well. Cells were treated with the tetralones as a pre-treatment and they were induced with 1 µg/ml LPS for 24 h. Then 2 µM dihydrorhodamine123 (DHR123; Life Technologies, Carlsbad, CA) fluorescent dye was added and incubated for an additional 2 h. Fluorescent intensity of the dye (excitation 490 nm/emission 510–570 nm) was measured with Glomax Multi Detection System (Promega®, Madison, WI, USA).

IL-6 in RAW264.7 cells = test: IL-6 production, ELISA; format: cell-based, mouse; conditions: 20 µM pre-treatment, 1 µg/ml LPS 24 h
Method: as §1, §2

RAW264.7 cells [5] = test: Nitrite production in LPS-induced macrophages (Griess reagent); format: cell-based, mouse; conditions: 20 µM pre-treatment, 1 µg/ml LPS 24 h; for lower nitrite concentrations: vs LPS-activated cells
Method: as §3
For nitrite measurements, we applied the same culturing conditions, treatments, and equipment as described above. After 24 h of incubation, 50 µl medium was removed and added to equal amount of Griess reagent (Sigma-Aldrich, St. Louis, MO, USA) in 96-well plate. The optical density was measured at 550 nm wavelength.

recombinant human MIF [6] = molecular target: T1, recombinant human MIF; set-up: method as in PMID 15778121; conditions: reference inhibitor; read-out: enolase IC50 of reference inhibitor; cited from earlier work
recombinant human MIF [7] = molecular target: T1, recombinant human MIF; set-up: method as in PMID 15778121; conditions: reference inhibitor; read-out: ketonase IC50 of reference inhibitor; cited from earlier work

Compound	IC50 (recombinant human MIF [1]) [µM]	IC50 (recombinant human MIF [2]) [µM]	further results
COc1ccc(/C=C2\CCc3ccccc3C2=O)cc1OC [Compound 17]	302 ± 63	585 ± 94	
O=C1/C(=C/c2ccc(Cl)cc2)CCc2ccccc21 [Compound 6]	42.8 ± 3.1	59.1 ± 9.7	
Cn1cccc1C=C1CCc2ccccc2C1=O [Compound 22]	27.8 ± 5.6	23.8 ± 3.8	
O=C1/C(=C/c2ccncc2)CCc2ccccc21 [Compound 26]	209 ± 77	21 ± 6.9	effect on TNF-α production (TNF-α in RAW264.7 cells): reduced TNF-α production; effect on NF-κB activation [3]: slight, but statistically significant inhibitory effect; decrease in ROS concentrations (RAW264.7 cells [4]): ~20%; effect on IL-6 production (IL-6 in RAW264.7 cells): had the most dominant effect; lower nitrite concentrations (RAW264.7 cells [5]): ~50%; IC50enolase/IC50ketonase (recombinant human MIF [2]): 10
O=C1/C(=C/c2ccccc2)Cc2ccccc21 [Compound 1, E-2-phenylmethylene-1-indanone]	20.2 ± 3.9	82.8 ± 16.5	
O=C1C(=Cc2cccnc2)CCc2ccccc21 [Compound 25]	28.6 ± 6	20.3 ± 5.5	
O=C1/C(=C/c2ccccc2)C[S+]([O-])c2ccccc21 (racemic) [Compound 37]	193 ± 59	94.6 ± 25.4	
O=C1/C(=C/c2cccc(Br)c2)CCc2ccccc21 [Compound 9]	3350 ± 424	7340 ± 1020	
O=C1/C(=C/c2c[nH]c3ccccc23)CCc2ccccc21 [Compound 23]	2.89 ± 0.75	58.8 ± 10.6	IC50ketonase/IC50enolase (recombinant human MIF [1]; selectivity for enolase): 20; effect on NF-κB activation [3]: slight, but statistically significant inhibitory effect; effect on ROS level (RAW264.7 cells [4]): induced a slight increase; effect on nitrite production (RAW264.7 cells [5]): could also inhibit nitrite production, but to a lower extent
O=C1/C(=C/c2ccc3c(c2)OCO3)CCc2ccccc21 [Compound 18]	213 ± 31	50.7 ± 6	
O=C1/C(=C/c2ccccc2)C(c2ccccc2)Oc2ccccc21 (stereo not shown) [Compound 35]		419 ± 113	
O=C(O)c1ccc(/C=C2\CCc3ccccc3C2=O)cc1 [Compound 14]	37.7 ± 16.3	187 ± 32	
O=C1/C(=C/c2ccc(Cl)cc2Cl)CCc2ccccc21 [Compound 13]	301 ± 42	16.9 ± 4.2	IC50enolase/IC50ketonase (recombinant human MIF [2]): 18
COc1ccc(/C=C2\COc3ccccc3C2=O)cc1 [Compound 30]	425 ± 70	96 ± 29.9	
O=C1/C(=C/c2ccc(F)cc2)CCc2ccccc21 [Compound 10]	42.1 ± 4.3	72.4 ± 3.4	
COc1ccc(/C=C2\CCc3ccccc3C2=O)cc1 [Compound 5]	33.4 ± 8.8	57 ± 14.1	
O=C1/C(=C/c2c(Cl)cccc2Cl)CCc2ccccc21 [Compound 11]	35.5 ± 5.9	58.9 ± 10.3	
O=C1/C(=C/c2ccco2)CCc2ccccc21 [Compound 19]	25.4 ± 4.7	57.7 ± 12.6	
O=C1/C(=C/c2ccc[nH]2)CCc2ccccc21 [Compound 21]	125 ± 39	142 ± 31	

Compound	IC50 (recombinant human MIF [1]) [µM]	IC50 (recombinant human MIF [2]) [µM]	further results
CN(C)c1ccc(/C=C2\CCc3ccccc3C2=O)cc1 [Compound 15]	495 ± 101	90.2 ± 15.1	
O=C1/C(=C/c2ccccc2)CCc2ccccc21 [Compound 2]	113 ± 16	127 ± 20	
O=C1/C(=C/c2cccs2)CCc2ccccc21 [Compound 20]	52.3 ± 7.6	54 ± 5.5	
Cc1cccc(/C=C2\COc3ccccc3C2=O)c1 [Compound 29]	443 ± 112	56.1 ± 8.8	
O=C1/C(=C/c2ccccc2)COc2ccccc21 [Compound 27]	1740 ± 483	267 ± 59	
COc1ccccc1/C=C1\COc2ccccc2C1=O [Compound 32]	1260 ± 159	4.31 ± 1.34	effect on TNF-α production (TNF-α in RAW264.7 cells): reduced TNF-α production; effect on NF-κB activation [3]: could not show any reducing effect; decrease in ROS concentrations (RAW264.7 cells [4]): ~20%; effect on IL-6 production (IL-6 in RAW264.7 cells): had the most dominant effect; lower nitrite concentrations (RAW264.7 cells [5]): ~50%
O=C(O)/C=C/c1ccc(O)c(O)c1 [caffeic acid]			IC50 (recombinant human MIF [6]): 2 µM; IC50 (recombinant human MIF [7]): 0.5 µM
O=C1/C(=C/c2ccc(Br)cc2)CCc2ccccc21 [Compound 8]	232 ± 54	52.2 ± 11.5	
Cc1ccc(/C=C2\COc3ccccc3C2=O)cc1 [Compound 28]	3620 ± 829	102 ± 19	
COc1cccc(/C=C2\COc3ccccc3C2=O)c1 [Compound 31]	205 ± 32	97 ± 20.7	
Cc1ccc(/C=C2\CCc3ccccc3C2=O)cc1 [Compound 4]	2290 ± 343	16.5 ± 3.4	effect on NF-κB activation [3]: slight, but statistically significant inhibitory effect; effect on ROS level (RAW264.7 cells [4]): failed to modify ROS level; effect on nitrite production (RAW264.7 cells [5]): could also inhibit nitrite production, but to a lower extent
N#Cc1ccc(/C=C2\CCc3ccccc3C2=O)cc1 [Compound 16]	43.2 ± 12.4	146 ± 17	
O=C1/C(=C\c2ccccc2)CSc2ccccc21 [Compound 36]	633 ± 108	208 ± 42	
O=C1/C(=C/c2ccccc2)CS(=O)(=O)c2ccccc21 [Compound 38]	151 ± 27	160 ± 38	
O=C1/C(=C/c2ccc(Br)cc2)COc2ccccc21 [Compound 33]	1890 ± 438	311 ± 77	
O=C1/C(=C/c2ccccc2Br)COc2ccccc21 [Compound 34]	3200 ± 887	98.3 ± 16	
O=C1/C(=C/c2ccccc2Cl)CCc2ccccc21 [Compound 7]	458 ± 73	2640 ± 406	
O=C1/C(=C/c2ccc(Cl)c(Cl)c2)CCc2ccccc21 [Compound 12]	91.5 ± 9	2620 ± 696	
O=C1/C(=C/c2ccccc2)CCCc2ccccc21 [Compound 3, E-2-phenylmethylene-1-benzosuberone]	129 ± 19	84 ± 15.3	
